Data: US11077138B2, “Methods of tissue repair and regeneration” (INNOLIFE CO., LTD., priority 2015, dated 2021)
“Also recorded” adds a separate entry of the source.

Experiments:
[1] = system: isolated rat aortic rings; experiment: Isolated rat aortic ring assay for angiogenesis; type: cell-based, Sprague Dawley rats; conditions: 8 days
From the text: Thoracic aortas were removed from 8- to 10-week-old male Sprague Dawley (SD) rats (292-307 g) and immediately transferred to a culture dish containing ice-cold serum-free endothelial basal medium-2 (EBM-2, Lonza Cologne AG). The periaortic fibroadipose tissue was carefully removed with fine microdissecting forceps and iridectomy scissors; paying special attention not to damage the aortic wall. One-millimeter long aortic rings were sectioned and extensively rinsed in five consecutive washes with EBM-2.
Forty-eight well tissue culture grade plates were covered with 100 μl of matrigel (GFR, BD) and allowed to gel for 45 min at 37° C., 5% CO2. Aortic rings were placed on the matrigel-coated wells, covered with an additional 100 μl matrigel and allowed to gel again for 45 min at 37° C., 5% CO2. The culture was then added 250 μl EBM-2 containing 1% fetal bovine serum (FBS). Copper sulfide solution was added to the culture at a final concentration of 5, 25, 50 or 100 μM copper element. The growth media were removed and replaced every 2 days. Aortic rings were photographed on Day 8.
The area of angiogenic sprouting was calculated using the Image J software program (NIH, Bethesda, Md.). Microvessel densities are reported in square pixels.
(§1) Aortic rings were cultured in 48-well plates in 250 μl EBM-2 (1% FBS) media containing anti-VEGF antibody (Santa Cruz, Calif., USA) at a final concentration of 2 ng/ml. The treatment and angiogenesis assay were the same as above.

VEGF = experiment: Western blotting analysis of VEGF in isolated rat aortic rings; type: cell-based, Sprague Dawley rats; conditions: for production of VEGF (protein level): 8 days
Method: Protein extracts were obtained after lysing rat aortic rings with matrigel in the radio immunoprecipitation assay (RIPA) lysis buffer (Beyotime, Jiangsu, CN) containing 1% complete ethylene diamine tetraacetic acid (EDTA)-free protease inhibitor cocktail (Roche, Mannhein, DE) for 30 min on ice. Equal loading of protein was assured by prior quantitation using a bicinchoninic acid (BCA) protein assay kit (Thermo, Rockford, USA). An appropriate amount of protein in total lysates was resolved in a sodium dodecyl sulfate (SDS)-polyacrylamide electrophoresis gel and transferred onto a polyvinylidene difluoride membrane (Bio-rad, USA). Membranes were blocked for 1 h in Tris-buffered saline/Tween 20 (TBST) (10 mM Tris.HCl, pH 8.0, 150 mM NaCl and 0.1% Tween 20) containing 5% nonfat dry milk and incubated overnight at 4° C. with the primary mouse anti-VEGF antibody (Santa Cruz, Calif., USA) and mouse antibeta actin antibody (ZSGB-BIO, Beijing, CN) diluted in the blocking buffer. After washing with TBST, the membranes were incubated with a horseradish peroxidase (HRP)-linked antimouse immunoglobulin G (IgG) antibody (ZSGB-BIO, Beijing, CN) diluted in TBST for 1 h at room temperature. Target proteins were visualized using a chemiluminescence HRP substrate (Millipore, Billerica, USA).
as §1

[2] = system: BMSCs homing (SDF-1/CXCR4 axis); experiment: Tracking of homing of labeled autologous BMSCs to the infarcted rabbit heart; type: in vivo, New Zealand white rabbits; conditions: BMSCs incubated overnight with AMD3100
Method: (1) Adult male New Zealand white rabbits were preoperative fasted for 12 hours, and the operation room was sterilized by overnight ultraviolet radiation before the surgery. (2) Rabbits were anesthetized with 3 ml/kg chloral hydrate by intraperitoneal administration, and then placed on the operation table in the supine position. Hairs covering chest and limbs at electrode attachment site were shaved. The surgical area was scrubbed with povidone-iodine for 3 consecutive times. Lidocaine was injected into the subcutaneous area around the incision site. (3) Electrodes were attached to the limbs and ECG (electrocardiogram) was recorded 30 minutes before and after the surgery. (4) The rabbits were subjected to a median sternotomy. The skin was cut and the s.c. tissue and the muscular was dissected. Afterwards, the sternum was retracted and the pleuron was dissected, the pleural space was opened and so the pericardium was exposed. (5) After gently incision of the pericardium, the heart was exposed and the left circumflex branch (LC) was ligated. […] (6) Color changes of the anterior ventricular wall, the difference of left ventricular wall motion, and alterations including ST segment recorded by electrodes II, III, and aVF in ECG was monitored for 2 minutes to ensure that the ligation was successful. […]

HIF-1 = experiment: Hypoxia-induced activation of HIF-1 in HepG2 cells; type: cell-based, human
From the text: There are multiple sites that potentially require copper for activation of HIF-1, including HIF-1α synthesis, stabilization, translocation from cytosol to nucleus, binding to the HRE sequence of target genes, and HIF-1 transcriptional complex formation. We have specifically determined the mechanism of action of copper in regulation of HIF-1 transcriptional activity in human hepatoma HepG2 cells. […] This CCS gene silencing result excludes possible confounding effect on nonspecific chelation by TEPA. […] Therefore, it was concluded that copper is required for HIF-1 activation through regulation of HIF-1α binding to the HRE and the formation of HIF-1 transcriptional complex. Copper deficiency thus suppresses HIF-1 transcriptional activity by FIH-1 depression.

[3] = copper at concentrations above 50 μM

With Copper sulfide the “angiogenesis (area of angiogenic sprouting)” value ([1]; 5 μM copper, EBM-2 with 1% FBS) was “stimulated the vascular formation; also recorded: strongest promotion effect on the angiogenesis”, the “angiogenesis (area of angiogenic sprouting)” value [1, 3] was “lost the pro-angiogenesis effect; also recorded: significantly inhibitory effect” and the “production of VEGF (protein level)” value (VEGF; 5 μM copper) was “did not enhance the production of VEGF”. For the same compound, the “production of VEGF (protein level)” value (VEGF; [3]) was “significantly increased the production of VEGF”.

For c1cc(CN2CCCNCCNCCCNCC2)ccc1CN1CCCNCCNCCCNCC1 [AMD3100], the “homing of AMD3100 treated BMSCs to Cu-albumin-microbubble treated chronic ischemic area” value ([2]; 6 months after MI surgery, Cu-albumin-microbubble treated) was “homing signals could not be observed; also recorded: no BMSCs homing signal” and the “homing of AMD3100 treated BMSCs to acute cardiac infarct area” value ([2]; within 1 month after MI surgery) was “could not home cardiac infarct area; also recorded: significant decrease of BMSCs homing signals”.

With NCCNCCNCCNCCN [TEPA, tetraethylenepentamine] the “copper promotion of angiogenesis, TEPA with copper” value ([1]; 25 μM TEPA simultaneously with 5 μM copper) was “blocked; also recorded: completely suppressed the angiogenic promotion effect of 5 μM copper”, the “angiogenesis, TEPA alone” value ([1]; 25 μM TEPA) was “caused an inhibition of angiogenesis” and the “hypoxia-induced activation of HIF-1” value (HIF-1) was “suppressed hypoxia-induced activation of HIF-1”. The VEGF levels (VEGF; 25 μM TEPA, with or without 5 μM copper) was “significantly decreased VEGF levels”.
